Consider seven compounds from ChEMBL document CHEMBL1201862, “PubChem BioAssay data set” (2004).

Holding throughout (assay): growth of human tumour cells (NCI), 48 h
Test [1] relates to COLO 205.
The test system of test [2] is EKVX.
Test [3] has as its system HCC 2998.
Test [4] deals with HCT-15.
Test [5] concerns HOP-92.
For test [6], the system named is HT-29.
Test [7] relates to KM-20L2.
In test [8] the test system is KM12.
Test [9] has as its system MOLT-4.
In test [10] the test system is Malme-3M.
Test [11] relates to NCI-H226.
The test system of test [12] is NCI-H23.
Test [13] relates to OVCAR-3.
Test [14] deals with OVCAR-4.
For test [15], the system named is OVCAR-5.
In test [16] the test system is SF-268.
Test [17] relates to SF-539.
Test [18] has as its system SNB-19.
Test [19] has as its system SR.
The subject of test [20] is UACC-257.

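Tested at 5 concentrations; 48 h exposure; 96-well plates; endpoints linearly interpolated, else capped at highest concentration. At the GI50, growth is halved.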 Activity calls are given as the source filed them. Rule as the data show it: active = GI50 up to about 1.1 µM and inactive = higher.

With `[O-]c1c2c(nn1-c1ccccc1)c1ccccc1c[n+]2Cc1ccccc1`, the GI50 in test [1] was > 100 µM (inactive); in test [2], > 100 µM (inactive); in test [3], > 100 µM (inactive); in [4] it was greater than 100 µM; in [5], > 100 µM (inactive); in test [6], > 100 µM (inactive). The GI50 in [7], in test [8], in [9], in test [10], in test [11] and in [12] was > 100 µM (inactive) in each case. The GI50 in [13] is > 100 µM (inactive); in [14], 78 µM (inactive); in test [15] it was > 100 µM (inactive); in test [16] it was 47.1 µM (inactive); in [17] it was > 100 µM (inactive); in test [18], > 100 µM (inactive). Further, the GI50 in test [19] and in [20] was > 100 µM (inactive) each time.
Take `COc1ccc(C[C@@H]2NC[C@@H](O)[C@@H]2OC(C)=O)cc1`: the GI50 was 0.0102 µM (active) in test [1]; 0.0475 µM (active) in test [2]; 0.0208 µM (active) in test [3]; 0.0171 µM in test [4]; 0.00618 µM (active) in [5]; 0.0197 µM (active) in test [6]. The GI50 was 3.95 µM (inactive) in test [7]; 0.027 µM (active) in test [8]; 0.0105 µM (active) in test [9]; 0.0385 µM (active) in [10]; 0.0358 µM (active) in [11]; 0.021 µM (active) in test [12]. Further, the GI50 in [13] was 0.0256 µM (active); in test [14], 0.00957 µM (active); in test [15], 0.0198 µM (active); in test [16], 0.0232 µM (active); in [17], 0.0234 µM (active); in test [18] it was 0.0228 µM (active). Moreover, the values for the GI50 in test [19] and in test [20] were 0.0164 µM (active) and 0.0228 µM (active), respectively.
With `C=C(C)C(O)CCC1(C)C=Cc2c(c(C)cc3c2[nH]c2ccccc23)O1` (stereo not drawn), the GI50 in test [1] is 4.65 µM (inactive); in test [3] it was 5.65 µM (inactive); in test [4], 4.26 µM; in test [5] it was 7.01 µM (inactive); in [6], 4.72 µM (inactive); in test [7], 3.99 µM (inactive). The GI50 is 5.85 µM (inactive) in test [8]; 5.75 µM (inactive) in [9]; 11.3 µM (inactive) in test [10]; 7.01 µM (inactive) in test [11]; 10.7 µM (inactive) in [12]; 7.52 µM (inactive) in test [13]. Besides, the GI50 in test [14] was 16.5 µM (inactive); in test [15], 4.2 µM (inactive); in test [16], 9.93 µM (inactive); in test [17], 4.27 µM (inactive); in [18], 15.2 µM (inactive); in test [19] it was 8.47 µM (inactive). Besides, the GI50 in test [20] is 8.17 µM (inactive).
For the compound `CC(O)CCCOC(c1ccccc1)(c1ccccc1)c1ccccc1` (stereo not drawn), the GI50 in test [1] is 20.1 µM (inactive); in test [2], 14.8 µM (inactive); in [3], 15.3 µM (inactive); in test [4], 15.4 µM; in test [5], 12.6 µM (inactive); in [6] it was 13.2 µM (inactive). In addition, the GI50 is 10.4 µM (inactive) in test [7]; 14.3 µM (inactive) in [8]; 16.6 µM (inactive) in [9]; 14.5 µM (inactive) in test [10]; 16.1 µM (inactive) in [11]; 14.1 µM (inactive) in [12]. Further, the GI50 in test [13] was 14.2 µM (inactive); in test [14], 14.8 µM (inactive); in test [15], 16.7 µM (inactive); in test [16], 15.9 µM (inactive); in test [17], 17.2 µM (inactive); in test [18] it was 16 µM (inactive). In addition, the GI50 was 20.1 µM (inactive) in test [19] and 16.3 µM (inactive) in [20].
As for `CC1=CC[C@@H](C(C)(C)O)C[C@@H]1O`, the GI50 in test [1] was > 5000 µM (inactive); in test [2], > 5000 µM (inactive); in test [3], > 5000 µM (inactive); in test [4], greater than 5000 µM; in test [5], > 5000 µM (inactive); in test [6], > 5000 µM (inactive). Also, the GI50 in [7], in test [8], in test [9], in [10], in test [11] and in test [12] was > 5000 µM (inactive) each time. The GI50 in [13], in test [14], in [15], in test [16], in test [17] and in test [18] was > 5000 µM (inactive) in each case. Further, the GI50 in test [19] and in [20] was > 5000 µM (inactive) each time.
On to `Cc1ccc(NC(=O)CCc2cc(C(C)(C)C)nc(S)n2)cc1C`, for which the GI50 is > 100 µM (inactive) in test [1]; > 100 µM (inactive) in [2]; > 100 µM (inactive) in [3]; greater than 100 µM in test [4]; > 100 µM (inactive) in [5]; > 100 µM (inactive) in [6]. For the same compound, the GI50 in [7], in test [8], in test [9], in test [10], in test [11] and in test [12] was > 100 µM (inactive) each time. Also, the GI50 in [13], in test [15], in test [16], in [17], in test [18] and in [19] was > 100 µM (inactive) in each case. Moreover, the GI50 in test [20] was > 100 µM (inactive).
With `CN(C)CCNC(=O)c1cccc2c(Nc3ccc(S(N)(=O)=O)cc3)c3ccccc3nc12`, the GI50 in test [1] was 0.391 µM (active); in test [2] it was 3.05 µM (inactive); in test [3], 1.71 µM (inactive); in test [4] it was 1.83 µM; in [5], 1.32 µM (inactive); in [6], 1.26 µM (inactive). The GI50 in test [7] was 2.71 µM (inactive); in test [8], 1.72 µM (inactive); in [9], 0.0632 µM (active); in [10], 1.49 µM (inactive); in test [11], 1.05 µM (active); in [12], 1.73 µM (inactive). Moreover, the GI50 in test [13] was 1.69 µM (inactive); in test [14] it was 1.7 µM (inactive); in test [15], 2.32 µM (inactive); in test [16], 0.746 µM (active); in test [17], 0.536 µM (active); in test [18], 1.05 µM (active). For the same compound, the GI50 in [19] is 0.0551 µM (active); in [20] it was 2.96 µM (inactive).
